Test results as given in ChEMBL document CHEMBL1201862, “PubChem BioAssay data set” (2004).
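Method: 48-hour compound exposure of cells in 96-well plates, five concentrations, linear interpolation of endpoints. The concentration for 50% growth inhibition is given as GI50.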 Calls of active or inactive are those of the source. Rule as the data show it: active = GI50 up to about 1.1 µM and inactive = higher.

What was measured:
Test in all cases: DTP human tumour cell line panel, 48 h
SK-MEL-5 = test system: SK-MEL-5
OVCAR-5 = test system: OVCAR-5
HL-60 = test system: HL-60
Hs-578T = test system: Hs-578T
SNB-75 = test system: SNB-75
SR = test system: SR
UACC-62 = test system: UACC-62
RXF 393 = test system: RXF 393
SW-620 = test system: SW-620
SN12C = test system: SN12C
CCRF-CEM = test system: CCRF-CEM
NCI-H23 = test system: NCI-H23
MDA-MB-231 = test system: MDA-MB-231
HCC 2998 = test system: HCC 2998
Malme-3M = test system: Malme-3M
NCI-H226 = test system: NCI-H226
HCT-15 = test system: HCT-15
U-251 = test system: U-251
SK-MEL-2 = test system: SK-MEL-2
OVCAR-4 = test system: OVCAR-4

Row | SMILES | GI50 (SK-MEL-5) | GI50 (OVCAR-5) | GI50 (HL-60) | GI50 (Hs-578T) | GI50 (SNB-75) | GI50 (SR) | GI50 (UACC-62) | GI50 (RXF 393) | GI50 (SW-620) | GI50 (SN12C) | GI50 (CCRF-CEM) | GI50 (NCI-H23) | GI50 (MDA-MB-231) | GI50 (HCC 2998) | GI50 (Malme-3M) | GI50 (NCI-H226) | GI50 (HCT-15) | GI50 (U-251) | GI50 (SK-MEL-2) | GI50 (OVCAR-4)
1 | COc1ccc2nc(-c3ccccc3)c(=O)[nH]c2c1 | > 100 µM (inactive) | > 100 µM (inactive) | > 100 µM (inactive) | > 100 µM (inactive) | > 100 µM (inactive) | > 100 µM (inactive) | > 100 µM (inactive) | > 100 µM (inactive) | > 100 µM (inactive) | > 100 µM (inactive) | > 100 µM (inactive) | > 100 µM (inactive) | > 100 µM (inactive) | > 100 µM (inactive) | > 100 µM (inactive) | > 100 µM (inactive) | > 100 µM | – | – | –
2 | Cn1c(=O)c2c(nc3n(Cc4ccccc4)c(=O)c(NCCCBr)cn23)n(C)c1=O | > 100 µM (inactive) | > 100 µM (inactive) | > 100 µM (inactive) | 27.3 µM (inactive) | 24.8 µM (inactive) | 23 µM (inactive) | > 100 µM (inactive) | 71 µM (inactive) | > 100 µM (inactive) | > 100 µM (inactive) | > 100 µM (inactive) | > 100 µM (inactive) | 64.9 µM (inactive) | > 100 µM (inactive) | – | 31.5 µM (inactive) | > 100 µM | 34.1 µM (inactive) | > 100 µM (inactive) | > 100 µM (inactive)
3 | Nc1cccc2cc(Cl)cnc12 | > 100 µM (inactive) | > 100 µM (inactive) | 22.8 µM (inactive) | 36.3 µM (inactive) | 34.4 µM (inactive) | > 100 µM (inactive) | 56.8 µM (inactive) | > 100 µM (inactive) | > 100 µM (inactive) | > 100 µM (inactive) | 16.1 µM (inactive) | > 100 µM (inactive) | > 100 µM (inactive) | > 100 µM (inactive) | > 100 µM (inactive) | > 100 µM (inactive) | > 100 µM | > 100 µM (inactive) | – | > 100 µM (inactive)
4 | O=C1C(Cl)=C(Oc2ccc([N+](=O)[O-])cc2)C(=O)c2c(O)ccc(O)c21 | > 84.1 µM (inactive) | > 100 µM (inactive) | 4.65 µM (inactive) | > 100 µM (inactive) | > 100 µM (inactive) | 3.78 µM (inactive) | > 63.7 µM (inactive) | 23.1 µM (inactive) | 30.2 µM (inactive) | 98.4 µM (inactive) | 2.12 µM (inactive) | > 57.9 µM (inactive) | 28.4 µM (inactive) | > 100 µM (inactive) | 18.1 µM (inactive) | > 100 µM (inactive) | 25.6 µM | > 100 µM (inactive) | – | 51.8 µM (inactive)
5 | C[C@@H](c1ccccc1)N1C[C@@H](c2ccc3c(c2)OCO3)[C@@H]2C(=O)CCC[C@@H]21 | 36.8 µM (inactive) | > 100 µM (inactive) | 34.1 µM (inactive) | 72.9 µM (inactive) | 36.4 µM (inactive) | 42.8 µM (inactive) | 25.5 µM (inactive) | 88.5 µM (inactive) | – | 59.8 µM (inactive) | 61 µM (inactive) | 61.8 µM (inactive) | 63.8 µM (inactive) | 30.1 µM (inactive) | 31.3 µM (inactive) | > 100 µM (inactive) | 61.2 µM | 66.5 µM (inactive) | 41 µM (inactive) | 43.8 µM (inactive)
6 | O=C1/C(=C/c2c(Cl)[nH]c3ccccc23)c2ccccc2N1c1ccccc1 | 2.89 µM (inactive) | 12.9 µM (inactive) | 3.01 µM (inactive) | 3.9 µM (inactive) | 6.81 µM (inactive) | 3.64 µM (inactive) | 5.65 µM (inactive) | 11.9 µM (inactive) | 5.15 µM (inactive) | 6.19 µM (inactive) | 3.9 µM (inactive) | 5.32 µM (inactive) | 6.4 µM (inactive) | 8.97 µM (inactive) | 5.79 µM (inactive) | – | 3.14 µM | 5.05 µM (inactive) | 3.36 µM (inactive) | –
7 | COc1cc2c(cc1OC)C(=O)/C(=C/c1ccccc1)CC2 | 17.1 µM (inactive) | 27.4 µM (inactive) | 0.0426 µM (active) | > 100 µM (inactive) | 17 µM (inactive) | 13.5 µM (inactive) | – | > 100 µM (inactive) | 40.4 µM (inactive) | 43.7 µM (inactive) | 5.83 µM (inactive) | > 100 µM (inactive) | > 100 µM (inactive) | 22.6 µM (inactive) | > 100 µM (inactive) | 41.4 µM (inactive) | 20.8 µM | 53.2 µM (inactive) | 14.1 µM (inactive) | 62.4 µM (inactive)
8 | CC(=O)OCC1OC(SC2=N/C(=C\c3cc4c(=O)c5ccccc5sc4s3)C(=O)N2c2ccccc2)C(OC(C)=O)C(OC(C)=O)C1OC(C)=O (centres undefined) | > 100 µM (inactive) | 62.4 µM (inactive) | 20.1 µM (inactive) | > 100 µM (inactive) | 65.8 µM (inactive) | 42.2 µM (inactive) | > 100 µM (inactive) | 81.5 µM (inactive) | 67.8 µM (inactive) | > 100 µM (inactive) | – | > 100 µM (inactive) | 58.2 µM (inactive) | > 100 µM (inactive) | > 100 µM (inactive) | > 100 µM (inactive) | > 100 µM | 23.9 µM (inactive) | 32 µM (inactive) | 74.3 µM (inactive)
